Where “and” joins values, the source holds several entries; their conditions need not be identical. Equal entries are not always repeated.
Assays:
rat GPR40 (FFAR1) = biological target: T1, rat GPR40 (FFAR1) (Rattus norvegicus, UniProt Q8K3T4); test: IP1 functional assay, CHO cells stably expressing rat GPR40; format: cell-based; details: for Receptor Activation (%): representative curve Fig 1B
T1 construct: expressed in transfected cells
Experimental: CHO Jump-IN cells stably expressing rat GPR40 or HEK293 Jump-IN cells stably expressing rat GPR120 were cultured in DMEM media supplemented with 10% dialyzed FBS, non-essential amino acids, penicillin/streptomycin, 10 μg/ml Blasticidin S HCL and 200 or 100 μg/ml Hygromycin B, respectively (Life Technologies). Cell stocks were maintained and grown in a sub-confluent state using standard cell culture procedures. The day before the experiment, the cells were harvested with non-enzymatic cell dissociation buffer and re-suspended in DMEM supplemented as described above at 0.15 million cells per ml. […] The seeded plates were incubated overnight at 37°C in a humidified environment.
On the day of the experiment, the growth media was removed from the assay plate by centrifugation using a BlueCatBio BlueWasher, protocol #21 “Light Dry” and 10 μl of IP1 stimulation buffer (prepared according to the Cisbio IP-one Tb HTRF kit) is added to each well. Test compounds were dissolved and serially diluted in DMSO as 200X the final assay concentration and 50 nl of the compound dilution was acoustically added to each well of the assay plates. The plates were then incubated for 60 minutes at room temperature and 10 μl of detection buffer (prepared according to the IP-one Tb HTRF kit) is added to each well of the assay plate. The plates were then incubated for one additional hour at room temperature. […] For each assay, a standard curve plate in which IP1 is titrated is also included. […] The % activation is then plotted versus the concentration of test compound and the dose response curve fitted to a standard 4-paramater non-linear regression model using a custom in-house developed software package. Maximal % activation and EC50 are then determined for each test compound.

Rat PPARα = biological target: T2, Rat PPARα (Rattus norvegicus, UniProt P37230); test: cell-based nuclear receptor profiling (Indigo Biosciences), PPARα
T2 sequence (P37230 1-468): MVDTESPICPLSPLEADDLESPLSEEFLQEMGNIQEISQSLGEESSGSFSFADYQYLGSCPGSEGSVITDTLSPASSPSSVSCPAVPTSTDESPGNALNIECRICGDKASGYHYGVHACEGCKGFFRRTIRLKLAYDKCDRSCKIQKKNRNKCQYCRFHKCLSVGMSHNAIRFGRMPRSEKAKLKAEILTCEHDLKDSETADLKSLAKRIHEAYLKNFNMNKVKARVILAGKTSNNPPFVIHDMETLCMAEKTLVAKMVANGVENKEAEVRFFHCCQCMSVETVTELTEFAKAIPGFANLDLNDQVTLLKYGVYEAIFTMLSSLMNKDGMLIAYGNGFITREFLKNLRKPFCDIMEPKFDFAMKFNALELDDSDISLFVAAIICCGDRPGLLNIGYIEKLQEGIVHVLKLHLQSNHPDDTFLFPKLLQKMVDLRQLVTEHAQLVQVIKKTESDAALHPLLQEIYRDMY
Experimental: (§1) Rat PPARα, PPARδ, and PPARγ activities were determined by Indigo Biosciences (State College, PA) cell-based nuclear receptor profiling service.

Rat PPARδ = biological target: T3, Rat PPARδ (Rattus norvegicus, UniProt Q62879); test: cell-based nuclear receptor profiling (Indigo Biosciences), PPARδ
T3 sequence (Q62879 1-440): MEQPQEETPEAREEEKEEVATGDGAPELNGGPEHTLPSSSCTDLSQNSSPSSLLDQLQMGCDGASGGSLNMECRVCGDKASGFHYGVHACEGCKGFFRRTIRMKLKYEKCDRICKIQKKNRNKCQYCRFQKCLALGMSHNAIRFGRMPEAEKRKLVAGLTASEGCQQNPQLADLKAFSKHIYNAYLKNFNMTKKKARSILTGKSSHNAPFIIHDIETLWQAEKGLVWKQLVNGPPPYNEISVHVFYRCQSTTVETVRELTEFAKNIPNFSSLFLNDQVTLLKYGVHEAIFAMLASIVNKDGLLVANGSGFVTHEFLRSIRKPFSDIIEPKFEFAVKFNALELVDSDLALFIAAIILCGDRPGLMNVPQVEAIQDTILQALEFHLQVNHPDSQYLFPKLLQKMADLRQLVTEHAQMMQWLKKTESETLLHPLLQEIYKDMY
Experimental: as §1

[1] = test system: pancreatic islets of Langerhans from wild-type mice; test: glucose stimulated insulin secretion (GSIS), isolated wild-type islets; format: cell-based, mouse; details: WT islets; for secreted insulin per islet: 10 uM compound, 60 min, individual wells
Experimental: Pancreatic islets of Langerhans were isolated from wild-type and GPR40−/− mice (littermates) by collagenase digestion and discontinuous Ficoll gradient separation. […] Insulin secretion was determined by a 1 hr static incubation in Krebs-Ringer bicarbonate (KRB) buffer in a 96-well format as previously described. Briefly, islets were first preincubated in KRB medium with 2 mmol/l glucose for 30 min and were then transferred to a 96-well plate (three islets/well) and incubated with 200 μl of the KRB medium with 2 or 15 mmol/l glucose in the presence or absence of testing compounds for 60 min. The buffer was removed from the wells at the end of the incubation and assayed for insulin levels using the Ultrasensitive Rat Insulin ELISA kit (ALPCO, Salem, NH). All insulin secretion data were normalized by total islet numbers (ex: three islets/well), so the unit is secreted insulin (ng/ml) per islet.

[2] = protein binding assay in mouse plasma; format: in vitro ADME; details: read-out: free fraction

T1 sequence (Q8K3T4 whole entry): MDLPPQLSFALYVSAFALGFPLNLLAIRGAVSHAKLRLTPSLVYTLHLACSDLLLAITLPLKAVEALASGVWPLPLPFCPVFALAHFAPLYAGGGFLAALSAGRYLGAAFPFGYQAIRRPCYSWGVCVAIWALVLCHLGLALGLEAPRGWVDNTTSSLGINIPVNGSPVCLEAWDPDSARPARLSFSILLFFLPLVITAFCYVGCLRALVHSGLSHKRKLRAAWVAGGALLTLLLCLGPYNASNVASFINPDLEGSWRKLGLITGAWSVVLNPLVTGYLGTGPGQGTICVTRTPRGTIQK

selectivity for activation of rat GPR40 vs. GPR120, GPR41, GPR43, PPARα, PPARδ, PPARγ (rat GPR40 (FFAR1)): highly selective | Receptor Activation (%) (rat GPR40 (FFAR1); Concentration 2.00E-06 M): 154% | Receptor Activation (%) (rat GPR40 (FFAR1); Concentration 2.00E-07 M): 169% | Receptor Activation (%) (rat GPR40 (FFAR1); Concentration 2.00E-08 M): 136% | Receptor Activation (%) (rat GPR40 (FFAR1); Concentration 2.00E-09 M): 35% | Receptor Activation (%) (rat GPR40 (FFAR1); Concentration 2.00E-10 M): 5.69% | Receptor Activation (%) (rat GPR40 (FFAR1); Concentration 6.00E-07 M): 163% | Receptor Activation (%) (rat GPR40 (FFAR1); Concentration 6.00E-08 M): 133% | Receptor Activation (%) (rat GPR40 (FFAR1); Concentration 6.00E-09 M): 74% | Receptor Activation (%) (rat GPR40 (FFAR1); Concentration 6.00E-10 M): 16% | Receptor Activation (%) (rat GPR40 (FFAR1); Concentration 6.00E-11 M): -6% | EC50 (rat GPR40 (FFAR1); IP1 accumulation, CHO cells expressing rat GPR40, mean ± SD, N = 29): 0.006 ± 0.0029 µM | % Activation (rat GPR40 (FFAR1); maximal activation, percentage of the control response of an in-house partial agonist, mean ± SD): 166% and 166 ± 31^1% | EC50 (Rat PPARα): > 10 µM | % Activation (Rat PPARα; @ 10 μM): -0.2 @ 10 μM % and -0.24% | % Effect (Rat PPARα; Dose 0.309 nM): -0.03% | % Effect (Rat PPARα; Dose 0.981 nM): -0.05% | % Effect (Rat PPARα; Dose 3.11 nM): -0.11% | % Effect (Rat PPARα; Dose 9.85 nM): -0.1% | % Effect (Rat PPARα; Dose 31.2 nM): -0.09% | % Effect (Rat PPARα; Dose 99 nM): -0.06% | % Effect (Rat PPARα; Dose 314 nM): -0.09% | % Effect (Rat PPARα; Dose 995 nM): -0.13% | % Effect (Rat PPARα; Dose 3155 nM): -0.18% | % Effect (Rat PPARα; Dose 10000 nM): -0.24% | EC50 (Rat PPARδ): > 10 µM | % Activation (Rat PPARδ; @ 10 μM): -0.1 @ 10 μM % and -0.08% | % Effect (Rat PPARδ; Dose 0.309 nM): -0.01% | % Effect (Rat PPARδ; Dose 0.981 nM): 0.01% | % Effect (Rat PPARδ; Dose 3.11 nM): -0.001% | % Effect (Rat PPARδ; Dose 9.85 nM): -0.01% | % Effect (Rat PPARδ; Dose 31.2 nM): -0.01% | % Effect (Rat PPARδ; Dose 99 nM): 0.01% | % Effect (Rat PPARδ; Dose 314 nM): 0.00% | % Effect (Rat PPARδ; Dose 995 nM): -0.02% | % Effect (Rat PPARδ; Dose 3155 nM): -0.04% | % Effect (Rat PPARδ; Dose 10000 nM): -0.08% | fraction unbound [2]: 0.026
SMILES: O=C1NC(=O)C(C2CCOc3cc(Oc4ccc(C(F)(F)F)cc4Cl)ccc32)S1 (stereo not drawn) [MK-2305]
% Activation (rat GPR40 (FFAR1); individual experiments (raw data of Table 1)): 118% and 159% and 181% and 151% and 130% and 184% and 179% and 195% and 135% and 146% and 161% and 144% and 191% and 182% and 204% and 258% and 168% and 171% and 187% and 162% and 170% and 165% and 199% and 155% and 137% and 160% and 91% | secreted insulin per islet ([1]; 2mM glucose): 0.6472 ng/ml per islet and 0.4249 ng/ml per islet and 0.7026 ng/ml per islet and 0.678 ng/ml per islet and 0.4061 ng/ml per islet and 0.594 ng/ml per islet and 0.652 ng/ml per islet and 0.541 ng/ml per islet | secreted insulin per islet ([1]; 15 mM Glucose): 5.982 ng/ml per islet and 3.69 ng/ml per islet and 4.728 ng/ml per islet and 4.578 ng/ml per islet and 5.448 ng/ml per islet and 3.948 ng/ml per islet and 4.236 ng/ml per islet and 5.162 ng/ml per islet | effect on GSIS ([1]; high (15 mM) but not basal (2 mM) glucose): acutely stimulate GSIS
